Laboratory results from US20250213571A1, “TYK2 INHIBITORS AND USES THEREOF” (Alumis Inc., priority 2022, published 2025).
Counter-ions that a name gives are not always drawn. Like-named read-outs stand apart in the source and are kept apart here.

Key:
[1] = 14-membered ring
[2] = target: human TYK2 (JH2domain-pseudokinase) (Homo sapiens (Human), UniProt P29597); test: TYK2 JH2 domain binding assay (KINOMEscan)
Method: Binding constants for the compounds described herein against the JH2 domain were determined by the following protocol for a KINOMEscan® assay (DiscoveRx). A fusion protein of a partial length construct of human TYK2 (JH2domain-pseudokinase) (amino acids G556 to D888 based on reference sequence NP_003322.3) and the DNA binding domain of NFkB was expressed in transiently transfected HEK293 cells. From these HEK 293 cells, extracts were prepared in M-PER extraction buffer (Pierce) in the presence of Protease Inhibitor Cocktail Complete (Roche) and Phosphatase Inhibitor Cocktail Set II (Merck) per manufacturers' instructions. The TYK2 (JH2domain-pseudokinase) fusion protein was labeled with a chimeric double-stranded DNA tag containing the NFkB binding site fused to an amplicon for qPCR readout, which was added directly to the expression extract (the final concentration of DNA-tag in the binding reaction is 0.1 nM).
Streptavidin-coated magnetic beads (Dynal M280) were treated with a biotinylated small molecule ligand for 30 minutes at room temperature to generate affinity resins the binding assays. The liganded beads were blocked with excess biotin and washed with blocking buffer (SeaBlock (Pierce), 1% BSA, 0.05% Tween 20, 1 mM DTT) to remove unbound ligand and to reduce nonspecific binding.
The binding reaction was assembled by combining 16 μl of DNA-tagged kinase extract, 3.8 μl liganded affinity beads, and 0.18 μl test compound (PBS/0.05% Tween 20/10 mM DTT/0.1% BSA/2 μg/ml sonicated salmon sperm DNA)]. Extracts were used directly in binding assays without any enzyme purification steps at a ≥10,000-fold overall stock dilution (final DNA-tagged enzyme concentration <0.1 nM). Extracts were loaded with DNA-tag and diluted into the binding reaction in a two-step process. First extracts were diluted 1:100 in 1×binding buffer (PBS/0.05% Tween 20/10 mM DTT/0.1% BSA/2 […] sonicated salmon sperm DNA) containing 10 nM DNA-tag. This dilution was allowed to equilibrate at room temperature for 15 minutes and then subsequently diluted 1:100 in 1× binding buffer. Test compounds were prepared as 111× stocks in 100% DMSO. Kds were determined using an 11-point 3-fold compound dilution series with three DMSO control points. All compounds for Kd measurements were distributed by acoustic transfer (non-contact dispensing) in 100% DMSO. The compounds were then diluted directly into the assays such that the final concentration of DMSO was 0.9%. All reactions were performed in polypropylene 384-well plates. Each was a final volume of 0.02 mL. Assays were incubated with shaking for 1 hour at room temperature. Then the beads were pelleted and washed with wash buffer (1×PBS, 0.05% Tween 20) to remove displaced kinase and test compound. The washed based were resuspended in elution buffer (1 λPBS, 0.05% Tween […] non-biotinylated affinity ligand) and incubated at room temperature with shaking for 30 minutes. The kinase concentration in the eluates was measured by qPCR. qPCR reactions were assembled by adding 2.5 μL of kinase eluate to 7.5 μL of qPCR master mix containing […] amplicon primers and 0.15 μM amplicon probe. The qPCR protocol consisted of a 10 minute hot start at 95° C., followed by 35 cycles of 95° C. for 15 seconds, 60° C. for 1 minute.
Test compounds were prepared as 111× stocks in 100% DMSO. Kds were determined using an 11-point 3-fold compound dilution series with three DMSO control points. All compounds for Kd measurements were distributed by acoustic transfer (non-contact dispensing) in 100% DMSO. The compounds were then diluted directly into the assays such that the final concentration of DMSO was 0.9%. The Kds were determined using a compound top concentration of 30,000 nM. Kd measurements were performed in duplicate.
Binding constants (Kds) were calculated with a standard dose-response curve using the Hill equation: […]
The Hill Slope was set to −1. […]

JAK1 JH2 = JAK1 JH2 (Homo sapiens (Human), UniProt P23458); test: JAK1 JH2 binding (Kd, Table 2); details: JH2 domain
JAK1 JH2, sequence (P23458 583-855): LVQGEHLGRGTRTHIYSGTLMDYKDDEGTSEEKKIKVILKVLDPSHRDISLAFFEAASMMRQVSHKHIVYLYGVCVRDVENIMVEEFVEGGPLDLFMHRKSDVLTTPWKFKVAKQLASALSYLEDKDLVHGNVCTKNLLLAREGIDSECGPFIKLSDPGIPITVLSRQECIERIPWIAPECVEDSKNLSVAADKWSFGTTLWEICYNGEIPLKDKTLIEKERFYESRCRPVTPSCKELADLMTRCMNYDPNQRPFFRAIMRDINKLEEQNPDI

TYK2 JH1 = TYK2 JH1 (Homo sapiens (Human), UniProt P29597); test: TYK2 JH1 binding (Kd, Table 2); details: JH1 domain
TYK2 JH1, sequence (P29597 897-1176): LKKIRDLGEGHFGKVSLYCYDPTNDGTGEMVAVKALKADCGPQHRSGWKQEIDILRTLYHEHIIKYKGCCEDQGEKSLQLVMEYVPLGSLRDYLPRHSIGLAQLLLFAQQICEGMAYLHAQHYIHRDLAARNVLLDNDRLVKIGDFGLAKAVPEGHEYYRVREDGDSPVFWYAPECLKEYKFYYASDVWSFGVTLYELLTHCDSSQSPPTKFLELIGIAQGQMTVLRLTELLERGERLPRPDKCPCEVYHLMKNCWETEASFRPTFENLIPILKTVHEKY

human TYK2 (JH2domain-pseudokinase), sequence (P29597 556-888): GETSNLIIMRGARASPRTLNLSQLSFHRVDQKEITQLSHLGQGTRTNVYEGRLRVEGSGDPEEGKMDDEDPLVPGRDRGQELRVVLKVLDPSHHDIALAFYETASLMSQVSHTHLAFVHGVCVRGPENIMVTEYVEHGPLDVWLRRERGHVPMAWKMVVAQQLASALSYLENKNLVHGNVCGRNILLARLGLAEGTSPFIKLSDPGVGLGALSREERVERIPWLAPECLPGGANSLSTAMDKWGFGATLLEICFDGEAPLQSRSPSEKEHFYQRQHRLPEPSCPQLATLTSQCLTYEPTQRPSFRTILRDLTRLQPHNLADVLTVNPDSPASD

Kd [2] [µM] | Kd (JAK1 JH2) [µM] | Kd (TYK2 JH1) [µM] | Compound | further results
– | – | – | tert-butyl N-methyl-N-[(12R)-12-methyl-10-oxo-2,4,5,7,11,14,16,18-octaazapentacyclo[13.6.2.2^(3,6.0^(5,9.0^(19,23]pentacosa-1(21),3,6,8,15,17,19,22,24-nonaen-24-yl]carbamate | ring closure, isolated yield ([1]; cn_pd bond, Pd2(dba)3/Xantphos/Cs2CO3, 1,4-dioxane, 100.0 mM, 85.0 °C): 18%
– | – | – | C[C@@H]1COc2ccnc3cnc(cc23)Nc2cc(N(C)C(=O)OC(C)(C)C)c3ncc(n3n2)C(=O)N1 | ring closure, isolated yield ([1]; from C[C@H](COc1ccnc2cnc(N)cc12)NC(=O)c1cnc2c(N(C)C(=O)OC(C)(C)C)cc(Cl)nn12, cn_pd bond, Pd2(dba)3/Xantphos/Cs2CO3, 1,4-dioxane, 57.0 mM, 80.0 °C, 16.0 h): 54%
– | – | – | C[C@@H]1COCc2cc(c3nnn(C)c3c2)Nc2cc(N(C)C(=O)OC(C)(C)C)c3ncc(n3n2)C(=O)N1 | ring closure, isolated yield ([1]; from C[C@H](COCc1cc(N)c2nnn(C)c2c1)NC(=O)c1cnc2c(N(C)C(=O)OC(C)(C)C)cc(Cl)nn12, cn_pd bond, Pd2(dba)3/BINAP/Cs2CO3, dioxane, 50.0 mM, 16.0 h): 50%
– | – | – | C[C@@H]1COCc2cc(cn3ccnc23)Nc2cc(N(C)C(=O)OC(C)(C)C)c3ncc(n3n2)C(=O)N1 | ring closure, isolated yield ([1]; from C[C@H](COCc1cc(N)cn2ccnc12)NC(=O)c1cnc2c(N(C)C(=O)OC(C)(C)C)cc(Cl)nn12, cn_pd bond, Pd2(dba)3/Xantphos/Cs2CO3, 1,4-dioxane, 80.0 °C): 34%
– | – | – | tert-butyl N-methyl-N-[(14R)-14-methyl-16-oxo-12-oxa-2,7,8,15,19,23,24-heptaazapentacyclo[15.5.2.1^(3,10.0^(5,9.0^(20,24]pentacosa-1(23),3(25),4,6,9,17,19,21-octaen-21-yl]carbamate | ring closure, isolated yield ([1]; cn_pd bond, Pd2(dba)3/BINAP/Cs2CO3, 1,4-dioxane, 23.0 mM, 80.0 °C): 71%
– | – | – | tert-Butyl ((7R,E)-7-(hydroxymethyl)-3^1-methyl-9-oxo-3^1H-5-oxa-2,8-diaza-1(6,3),3(4,6)-diimidazo[1,2-b]pyridazinacyclononaphane-1^8-yl)(methyl)carbamate | ring closure, isolated yield ([1]; cn_pd bond, Pd2(dba)3/BINAP/Cs2CO3, dioxane, 10.0 mM): 25%
< 0.01 | 0.01 to 1 | 1 to 10 | CNc1cc2nn3c(cnc13)C(=O)N[C@H](C)COCc1cc(c3cnn(C)c3c1)N2 [Compound 12, (7R,E)-3^1,7-Dimethyl-1^8-(methylamino)-3^1H-5-oxa-2,8-diaza-1(6,3)-imidazo[1,2-b]pyridazina-3(4,6)-indazolacyclononaphan-9-one] | –
– | – | – | CNc1nc2cnc3cn2c1C(=O)N[C@H](C)COCc1cc(c2nnn(C)c2c1)N3 | ring closure, isolated yield ([1]; from CNc1nc2cnc(Br)cn2c1C(=O)N[C@H](C)COCc1cc(N)c2nnn(C)c2c1, cn_pd bond, RuPhos Pd G3/Cs2CO3, dioxane, 62.0 mM, 100.0 °C, 16.0 h): 10%
< 0.01 | 1 to 10 | ≥ 30 | CNc1cc2nc3c(cnn13)C(=O)N[C@H](C)COCc1cc(c3c(c1)ncn3C)N2 [Compound 9, (R,1^3E,1^4E)-3^1,7-Dimethyl-1^7-(methylamino)-3^1H-5-oxa-2,8-diaza-1(5,3)-pyrazolo[1,5-a]pyrimidina-3(7,5)-benzo[d]imidazolacyclononaphan-9-one] | –
< 0.01 | 0.01 to 1 | 10 to 30 | CNc1cc2nc3c(cnn13)C(=O)N[C@H](C)COCc1cc(c3cn(C)nc3c1)N2 [Compound 53] | –
– | – | – | tert-butyl N-methyl-N-[(12R)-12-methyl-10-oxo-14-oxa-2,4,5,7,11,22-hexaazapentacyclo[13.6.2.2^(3,6.0^(5,9.0^(19,23]pentacosa-1(21),3,6,8,15,17,19,22,24-nonaen-24-yl]carbamate | ring closure, isolated yield ([1]; cn_pd bond, Pd2(dba)3/Xantphos/Cs2CO3, 1,4-dioxane, 95.0 mM, 80.0 °C): 86%
– | – | – | (14R)-19-[(4-methoxyphenyl)methyl]-21-([(4-methoxyphenyl)methyl](methyl)amino-7,14-dimethyl-12-oxa-2,5,6,7,15,18,19,22,23-nonaazapentacyclo[15.5.2.1^(3,10.0^(4,8.0^(20,24]pentacosa-1(23),3(25),4(8),5,9,17,20(24),21-octaen-16-one | ring closure, isolated yield ([1]; cn_pd bond, Pd2(dba)3/Xantphos/Cs2CO3, 1,4-dioxane, 36.5 mM, 100.0 °C): 74%
– | – | – | C[C@@H]1COCc2cc(c3nnn(C)c3c2)Nc2cc(N(C)C(=O)OC(C)(C)C)n3ncc(c3n2)C(=O)O1 | ring closure, isolated yield ([1]; from C[C@@H](O)COCc1cc(Nc2cc(N(C)C(=O)OC(C)(C)C)n3ncc(C(=O)O)c3n2)c2nnn(C)c2c1, ester bond, DIAD/PPh3, DCM, 20.0 mM, 16.0 h): 52%
– | – | – | tert-butyl N-methyl-N-[(12R)-12-methyl-10-oxo-2,4,5,7,11,14,18-heptaazapentacyclo[13.6.2.2^(3,6.0^(5,9.0^(19,23]pentacosa-1(21),3,6,8,15,17,19,22,24-nonaen-24-yl]carbamate | ring closure, isolated yield ([1]; cn_pd bond, Pd2(dba)3/Xantphos/Cs2CO3, 1,4-dioxane, 85.0 mM, 90.0 °C): 62%
– | – | – | tert-butyl N-methy 1-N-[(12R)-12-methyl-10-oxo-14-oxa-2,4,5,7,11,20-hexaazapentacyclo [13.6.2.2^{3,6}0.^{5,9}0.^{19,23}]pentacosa 1(21),3,6,8,15,17,19,22,24-nonaen-24-yl]carbamate | ring closure, isolated yield ([1]; cn_pd bond, Pd2(dba)3/Xantphos, 1,4-dioxane, 34.0 mM, 80.0 °C): 66%
< 0.01 | 10 to 30 | ≥ 30 | CNc1cc2nc3c(cnn13)C(=O)N[C@H](C)[C@@H](C)OCc1cc(c3c(c1)nnn3C)N2 [Compound 94] | –
< 0.01 | ≥ 30 | ≥ 30 | CNc1cc2nc3c(cnn13)C(=O)N[C@H](C(C)(C)O)COCc1cc(c3nnn(C)c3c1)N2 [Compound 16] | –
< 0.01 | 0.01 to 1 | 1 to 10 | CNc1cc2nn3c(cnc13)C(=O)N[C@H](C)COCc1cc(cc3nc[nH]c13)N2 [Compound 97, (14R)-14-methyl-21-(methylamino)-12-oxa-2,6,8,15,19,23,24-heptaazapentacyclo[15.5.2.1^(3,10.0^(5,9.0^(20,24]pentacosa-1(23),3(25),4,6,9,17,19,21-octaen-16-one hydrochloride] | –
< 0.01 | 10 to 30 | ≥ 30 | CNc1cc2nc3c(cnn13)C(=O)NC(C(F)(F)F)COCc1cc(c3nnn(C)c3c1)N2 (stereo not drawn) [Compound 92] | –
< 0.01 | 1 to 10 | ≥ 30 | CNc1cc2nc3c(cnn13)C(=O)N[C@H](C)[C@H](C)OCc1cc(c3c(c1)nnn3C)N2 [Compound 93] | –
≥ 30 | ≥ 30 | ≥ 30 | CNc1cc2nn3c(cnc13)C(=O)N[C@H](C)COc1cnnc3ccc(cc13)N2 [Compound 80] | –
